These results are taken from patent US10961202B2, “Bis-benzimidazole compounds and methods of using the same” (THE SCRIPPS RESEARCH INSTITUTE, priority 2017, dated 2021).

Each structure is given as a SMILES string.

In one assay the test system is r(CUG)12-MBNL1 complex. The assay is described as follows: Inhibition of the r(CUG)12-MBNL1 complex measured by TR-FRET. The class given is biochemical. As to conditions: Table L; 80 nM RNA, 60 nM MBNL1-His6. A general note: Time-resolved FRET reads energy transfer from a long-lived donor to a nearby acceptor.
For `Cn1c(-c2ccc(N)cc2)nc2cc(-c3ccc4c(c3)nc(-c3ccc(N)cc3)n4C)ccc21` [Compound 122, 1,1′-dimethyl-2,2′-bis(4-aminophenyl)-1H,1′H-5,5′-bibenzimidazole], the IC50 (as a rule, the concentration needed to halve the response being measured) amounted to 24 µM.

Take `Cn1c(-c2ccc(-c3nc4cc(Br)ccc4n3C)cc2)nc2cc(Br)ccc21` [Compound 89, 1,4-bis(5-bromo-1-methyl-1H-benzo[d]imidazol-2-yl)benzene]: the IC50 was over 200 µM.

Regarding `O=C(NCCN1CCOCC1)c1ccc2nc(-c3ccc(-c4nc5ccc(C(=O)NCCN6CCOCC6)cc5[nH]4)cc3)[nH]c2c1` [Compound 42, 2,2′-(1,4-phenylene)bis(N-(2-morpholinoethyl)-1H-benzo[d]imidazole-6-carboxamide)], the IC50 is over 200 µM.

Take `N#Cc1cccc(-c2nc3cc(-c4ccc5[nH]c(-c6cccc(C#N)c6)nc5c4)ccc3[nH]2)c1` [Compound 120]: the IC50 is over 200 µM.

Consider `Cn1c(-c2ccc(-c3nc4cc(N)ccc4n3C)cc2)nc2cc(N)ccc21` [Compound 83, 2,2′-(1,4-phenylene)bis(1-methyl-1H-benzo[d]imidazol-5-amine)], for which the IC50 is over 200 µM.

In turn, `N=C(N)Nc1ccc(-c2nc3cc(-c4ccc5[nH]c(-c6ccc(NC(=N)N)cc6)nc5c4)ccc3[nH]2)cc1` [Compound 96] came in with an IC50 of 4.6 µM.

In turn, `CNCCNC(=O)c1ccc(-c2nc3cc(-c4ccc5[nH]c(-c6ccc(C(=O)NCCNC)cc6)nc5c4)ccc3[nH]2)cc1` [Compound 111, 4,4′-(1H,1′H-[5,5′-bibenzo[d]imidazole]-2,2′-diyl)bis(N-(2-(methylamino)ethyl)benzamide)] registered an IC50 of 6.9 µM.

`N=C(N)Nc1cccc(-c2nc3cc(-c4ccc5nc(-c6cccc(N)c6)[nH]c5c4)ccc3[nH]2)c1` [Compound 166]: the IC50 is 46 µM.

`CN(C)NC(=O)c1ccc2nc(-c3ccc(-c4nc5ccc(C(=O)NN(C)C)cc5[nH]4)cc3)[nH]c2c1` [Compound 67] yielded an IC50 of over 200 µM.

Compound `CN1CCN(CCNC(=O)c2ccc3nc(-c4ccc(-c5nc6ccc(C(=O)NCCN7CCN(C)CC7)cc6[nH]5)cc4)[nH]c3c2)CC1` [Compound 45, 2,2′-(1,4-phenylene)bis(N-(2-(4-methylpiperazin-1-yl)ethyl)-1H-benzo[d]imidazole-6-carboxamide)] yielded an IC50 of 18.2 µM.

Still in this assay, the particulars now being: Table M; 80 nM RNA, 60 nM MBNL1-His6.
`CN(C)CCCCc1ccc2nc(-c3ccc(-c4nc5ccc(CCCCN(C)C)cc5[nH]4)cc3)[nH]c2c1` [Compound 220, 4,4′-(2,2′-(1,4-phenylene)bis(1H-benzo[d]imidazole-6,2-diyl))bis(N,N-dimethylbutan-1-amine)] returned an IC50 of over 200 µM.

For `CN(C)CCCOc1cc(F)cc2nc(-c3ccc(-c4nc5cc(F)cc(OCCCN(C)C)c5[nH]4)cc3)[nH]c12` [Compound 287], the midpoint of inhibition, the IC50, lay at 8.6 µM.

Regarding `CN(C)CCOCCOc1ccc(-c2nc3cc(-c4ccc5[nH]c(-c6ccc(O)cc6)nc5c4)ccc3[nH]2)cc1` [Compound 368], the IC50 was determined as 18 µM.

The compound `CN(C)CCCOc1ccc2nc(-c3ccc(-c4nc5ccc(OCCCN(C)C)c(F)c5[nH]4)cc3)[nH]c2c1F` [Compound 280] displayed an IC50 of 31.3 µM.

Compound `COCCOc1cc(-c2nc3cc(OCCCN(C)C)ccc3[nH]2)c(OC)cc1-c1nc2ccc(OCCCN(C)C)cc2[nH]1` [Compound 262, 3-((2-(4-(6-(3-(dimethylamino)propoxy)-1H-benzo[d]imidazol-2-yl)-2-methoxy-5-(2-methoxyethoxy)phenyl)-1H-benzo[d]imidazol-5-yl)oxy)-N,N-dimethylpropan-1-amine] yielded an IC50 of 55.5 µM.

In the case of `CCN(CC)C(=O)COc1ccc(-c2nc3cc(-c4ccc5[nH]c(-c6ccc(OCC(=O)N(CC)CC)cc6)nc5c4)ccc3[nH]2)cc1` [Compound 349], the IC50 was over 200 µM.

For `CN(C)CCSc1ccc(-c2nc3cc(-c4ccc5[nH]c(-c6ccc(SCCN(C)C)cc6)nc5c4)ccc3[nH]2)cc1` [Compound 381], it took 49.9 µM to reach half-maximal inhibition (IC50).

Turning to `CN(C)CCCOc1ccc2nc(-c3ccc(-c4nc5ccc(OCCCN(C)C)cc5[nH]4)c(OCCN(C)C)c3)[nH]c2c1` [Compound 263, 3,3′-((2,2′-(2-(2-(dimethylamino)ethoxy)-1,4-phenylene)bis(1H-benzo[d]imidazole-6,2-diyl))bis(oxy))bis(N,N-dimethylpropan-1-amine)], the IC50 was found to be 45.6 µM.

`CN(C)CCNC(=O)c1ccc(-c2nc3ccc(-c4ccc5nc(-c6ccc(C(=O)N7CCC(C8CCN(C(=O)c9ccc(-c%10nc%11ccc(-c%12ccc%13nc(-c%14ccc(C(=O)NCCN(C)C)cc%14)[nH]c%13c%12)cc%11[nH]%10)cc9)CC8)CC7)cc6)[nH]c5c4)cc3[nH]2)cc1` [Compound 439] yielded an IC50 of 10.9 µM.

In the case of `Oc1ccc2nc(-c3ccc(-c4nc5ccc(OCCN6CCCCC6)cc5[nH]4)cc3)[nH]c2c1` [Compound 195], 104 µM corresponded to half-maximal inhibition (IC50).

`CN(C)CCNC(=O)c1ccc(-c2nc3cc(-c4ccc5[nH]c(-c6ccc(C(=O)NCCCN=[N+]=[N-])cc6)nc5c4)ccc3[nH]2)cc1` [Compound 399] registered an IC50 of 9.6 µM.

`CN(C)CCCOc1ccc2nc(-c3ccc(-c4nc5ccc(OCCCO)cc5[nH]4)cc3)[nH]c2c1` [Compound 222, 3-((2-(4-(5-(3-(dimethylamino)propoxy)-1H-benzo[d]imidazol-2-yl)phenyl)-1H-benzo[d]imidazol-5-yl)oxy)propan-1-ol] yielded an IC50 of 95.3 µM.

`CN1CCC[C@H]1COc1ccc2nc(-c3ccc(-c4nc5ccc(O)cc5[nH]4)cc3)[nH]c2c1` [Compound 196] registered an IC50 of 106 µM.

`CN(C)CCCOc1ccc2nc(-c3ccc(-c4nc5ccc(OCCCC(=O)O)cc5[nH]4)cc3)[nH]c2c1` [Compound 248, 4-((2-(4-(5-(3-(dimethylamino)propoxy)-1H-benzo[d]imidazol-2-yl)phenyl)-1H-benzo[d]imidazol-5-yl)oxy)butanoic acid] displayed an IC50 of over 200 µM.

`CN(C)CCNC(=O)c1ccc(-c2nc3ccc(-c4ccc5nc(-c6ccc(C(=O)N(C)CCCc7cn(CCCNCC(=O)N8CCC[C@H]8C(=O)N8CCC[C@H]8C(=O)N8CCC[C@H]8C(=O)N8CCC[C@H]8C(=O)N(CCCn8cc(CCCN(C)C(=O)c9ccc(-c%10nc%11ccc(-c%12ccc%13nc(-c%14ccc(C(=O)NCCN(C)C)cc%14)[nH]c%13c%12)cc%11[nH]%10)cc9)nn8)CC(N)=O)nn7)cc6)[nH]c5c4)cc3[nH]2)cc1` [Compound 435] showed an IC50 of 13.3 µM.

Turning to `CC(CNC(=O)c1ccc(-c2nc3cc(-c4ccc5[nH]c(-c6ccc(C(=O)NCCN(C)C)cc6)nc5c4)ccc3[nH]2)cc1)NC(=O)c1ccc(-c2nc3cc(-c4ccc5[nH]c(-c6ccc(C(=O)NCCN(C)C)cc6)nc5c4)ccc3[nH]2)cc1` (centres unmarked) [Compound 411], the concentration for half-maximal inhibition (IC50) was found to be 1.91 µM.

For `CN(C)CCNC(=O)c1ccc(-c2nc3cc(-c4ccc5[nH]c(-c6ccc(OCCCC#N)cc6)nc5c4)ccc3[nH]2)cc1` [Compound 394], the IC50 is 19 µM.

In turn, `CN(C)CC(C)(C)COc1ccc(-c2nc3cc(-c4ccc5[nH]c(-c6ccc(OCC(C)(C)CN(C)C)cc6)nc5c4)ccc3[nH]2)cc1` [Compound 376] returned a 50% inhibitory concentration (IC50) of 69.5 µM.

Turning to `CC(=O)NCCN1CCN(CCNC(=O)c2ccc3nc(-c4ccc(-c5nc6ccc(C(=O)NCCN7CCCCC7)cc6[nH]5)cc4)[nH]c3c2)CC1` [Compound 206], the IC50 amounted to 64.4 µM.
